The values that follow come from US10004701B2, “Methods and compositions for treating infection” (UNIVERSITY OF ROCHESTER, priority 2012, dated 2018).

What all share (assay): AK assay 384-well format, Prestwick library screening
In assay [1] the test system is P. aeruginosa. The assay is classed as cell-based, Pseudomonas aeruginosa. As to conditions: 50 μM final drug concentration; for fold induction at 50 µM: Pseudomonas aeruginosa, 3 h.
Assay [2] has as its system K. pneumoniae. Type of assay: cell-based, Klebsiella pneumoniae. As to conditions: 50 μM final drug concentration; for fold induction at 50 µM: Klebsiella pneumoniae, 3 h.
Assay [3] deals with E. coli. The assay is classed as cell-based, Escherichia coli. Particulars: 50 μM final drug concentration; for fold induction at 50 µM: Escherichia coli, 3 h.
The subject of assay [4] is E. faecium. Type of assay: cell-based, Enterococcus faecium. Particulars: 50 μM final drug concentration; for fold induction at 50 µM: Enterococcus faecium, 3 h.
Assay [5] concerns E. cloacae. The assay is classed as cell-based, Enterobacter cloacae. Particulars: 50 μM final drug concentration; for fold induction at 50 µM: Enterobacter cloacae, 3 h.
The subject of assay [6] is A. baumannii strain 98-37-09. The assay is classed as cell-based, Acinetobacter baumannii. Particulars: 50 μM final drug concentration; for fold induction at 50 µM: Acinetobacter baumannii, 983709, 3 h.
For assay [7], the system named is S. aureus strain USA300-0114. The assay is classed as cell-based, Staphylococcus aureus. Particulars: 50 μM final drug concentration; for fold induction at 50 µM: Staphylococcus aureus, USA300, 3 h.

Structures can show the parent of a compound that is named as a salt. Where two headings read alike, the source gives them in different places.

For the molecule `COC1=C[C@@H]2C3=C([C@@H]2C1=O)[C@@H](NC(C)=O)CCc1cc(OC)c(OC)c(OC)c13` [Lumicolchicine gamma], the “AK-based Prestwick Library Screening Results, P. aeruginosa (fold increase in extracellular AK activity)” value in assay [1] (planktonic, […]) came out at 1.1. Moreover, in assay [2] (planktonic, […]), the “AK-based Prestwick Library Screening Results, K. pneumoniae (fold increase in extracellular AK activity)” value is recorded as 1.0. Also, the “AK-based Prestwick Library Screening Results, E. coli (fold increase in extracellular AK activity)” value in assay [3] (planktonic, […]) came out at 1.1. Further, the “AK-based Prestwick Library Screening Results, E. faecium (fold increase in extracellular AK activity)” value in assay [4] (planktonic, […]) was determined as 1.0. For the same molecule, the “AK-based Prestwick Library Screening Results, E. cloacae (fold increase in extracellular AK activity)” value in assay [5] (planktonic, […]) came out at 1.4. Also, the “AK-based Prestwick Library Screening Results, A. baumannii (fold increase in extracellular AK activity)” value in assay [6] (planktonic, […]) was 1.2. Moreover, in assay [7] (planktonic, […]), the “AK-based Prestwick Library Screening Results, S. aureus (fold increase in extracellular AK activity)” value was found to be 0.9.
For Iobenguane sulfate, in assay [1] (planktonic P. aeruginosa, cutoff for positive-scoring molecules 3-fold increase), the “AK-based Prestwick Library Screening Results, P. aeruginosa (increase in extracellular AK activity)” value amounted to 0.4. Further, the “AK-based Prestwick Library Screening Results, K. pneumoniae (increase in extracellular AK activity)” value in assay [2] (planktonic K. pneumoniae, cutoff for positive-scoring molecules 3-fold increase) is reported as 0.5. Further, the “AK-based Prestwick Library Screening Results, E. coli (increase in extracellular AK activity)” value in assay [3] (planktonic E. coli, cutoff for positive-scoring molecules 3-fold increase) worked out at 0.5. Also, the “AK-based Prestwick Library Screening Results, E. faecium (increase in extracellular AK activity)” value in assay [4] (planktonic E. faecium, cutoff for positive-scoring molecules 3-fold increase) is given as 0.9. Besides, the “AK-based Prestwick Library Screening Results, E. cloacae (increase in extracellular AK activity)” value in assay [5] (planktonic E. cloacae, cutoff for positive-scoring molecules 3-fold increase) is 0.6. In assay [6] (planktonic A. baumannii, cutoff for positive-scoring molecules 3-fold increase), the “AK-based Prestwick Library Screening Results, A. baumannii (increase in extracellular AK activity)” value was determined as 0.5. Besides, the “AK-based Prestwick Library Screening Results, S. aureus (increase in extracellular AK activity)” value in assay [7] (planktonic S. aureus, cutoff for positive-scoring molecules 3-fold increase) came out at 0.5.
For `CC(=O)Nc1ccc(OCC(O)CNC(C)C)cc1` (stereo not shown) [Practolol], the fold induction at 50 µM in assay [1] (planktonic P. aeruginosa, cutoff for positive-scoring molecules 3-fold increase, read-out: AK-based Prestwick Library Screening Results, P. aeruginosa (increase in extracellular AK activity)) stood at 0.6; in assay [2] (planktonic K. pneumoniae, cutoff for positive-scoring molecules 3-fold increase, read-out: AK-based Prestwick Library Screening Results, K. pneumoniae (increase in extracellular AK activity)), 0.5; in assay [3] (planktonic E. coli, cutoff for positive-scoring molecules 3-fold increase, read-out: AK-based Prestwick Library Screening Results, E. coli (increase in extracellular AK activity)), 0.7; in assay [4] (planktonic E. faecium, cutoff for positive-scoring molecules 3-fold increase, read-out: AK-based Prestwick Library Screening Results, E. faecium (increase in extracellular AK activity)) it was 0.9; in assay [5] (planktonic E. cloacae, cutoff for positive-scoring molecules 3-fold increase, read-out: AK-based Prestwick Library Screening Results, E. cloacae (increase in extracellular AK activity)), 0.8; in assay [6] (planktonic A. baumannii, cutoff for positive-scoring molecules 3-fold increase, read-out: AK-based Prestwick Library Screening Results, A. baumannii (increase in extracellular AK activity)), 0.7. Further, the fold induction at 50 µM in assay [7] (planktonic S. aureus, cutoff for positive-scoring molecules 3-fold increase, read-out: AK-based Prestwick Library Screening Results, S. aureus (increase in extracellular AK activity)) is 0.6.
Regarding `CN(C)CCCN1c2ccccc2Sc2ccccc21` [Promazine hydrochloride], the fold induction at 50 µM in assay [1] (cutoff for positive-scoring molecules 3-fold increase, read-out: AK-based Prestwick Library Screening Results, P. aeruginosa (fold increase in extracellular AK activity)) was found to be 1.1; in assay [2] (cutoff for positive-scoring molecules 3-fold increase, read-out: AK-based Prestwick Library Screening Results, K. pneumoniae (fold increase in extracellular AK activity)), 0.8; in assay [3] (cutoff for positive-scoring molecules 3-fold increase, read-out: AK-based Prestwick Library Screening Results, E. coli (fold increase in extracellular AK activity)), 1.2; in assay [4] (cutoff for positive-scoring molecules 3-fold increase, read-out: AK-based Prestwick Library Screening Results, E. faecium (fold increase in extracellular AK activity)) it was 1; in assay [5] (cutoff for positive-scoring molecules 3-fold increase, read-out: AK-based Prestwick Library Screening Results, E. cloacae (fold increase in extracellular AK activity)), 1.7; in assay [6] (cutoff for positive-scoring molecules 3-fold increase, read-out: AK-based Prestwick Library Screening Results, A. baumannii (fold increase in extracellular AK activity)), 0.9. In assay [7] (cutoff for positive-scoring molecules 3-fold increase, read-out: AK-based Prestwick Library Screening Results, S. aureus (fold increase in extracellular AK activity)), the fold induction at 50 µM was 1.4.
For the molecule `CN[C@H]1CC[C@@H](c2ccc(Cl)c(Cl)c2)c2ccccc21` [Sertraline], the fold induction at 50 µM in assay [1] (planktonic P. aeruginosa, positive cutoff 3-fold increase, read-out: AK-based Prestwick library screening result, P. aeruginosa (fold increase in extracellular AK activity)) amounted to 1.2; in assay [2] (planktonic K. pneumoniae, positive cutoff 3-fold increase, read-out: AK-based Prestwick library screening result, K. pneumoniae (fold increase in extracellular AK activity)), 1.4; in assay [3] (planktonic E. coli, positive cutoff 3-fold increase, read-out: AK-based Prestwick library screening result, E. coli (fold increase in extracellular AK activity)), 1.6; in assay [4] (planktonic E. faecium, positive cutoff 3-fold increase, read-out: AK-based Prestwick library screening result, E. faecium (fold increase in extracellular AK activity)), 1.1; in assay [5] (planktonic E. cloacae, positive cutoff 3-fold increase, read-out: AK-based Prestwick library screening result, E. cloacae (fold increase in extracellular AK activity)), 1.5; in assay [6] (planktonic A. baumannii, positive cutoff 3-fold increase, read-out: AK-based Prestwick library screening result, A. baumannii (fold increase in extracellular AK activity)), 2.9. The fold induction at 50 µM in assay [7] (planktonic S. aureus, positive cutoff 3-fold increase, read-out: AK-based Prestwick library screening result, S. aureus (fold increase in extracellular AK activity)) turned out to be 1.6.
Consider `CCN(CC)Cc1cc(Nc2ccnc3cc(Cl)ccc23)ccc1O` [Amodiaquin dihydrochloride dihydrate], for which the fold induction at 50 µM in assay [1] (planktonic P. aeruginosa, 384-well, cutoff for positive-scoring molecules 3-fold increase, read-out: AK-based Prestwick Library Screening Results: P. aeruginosa (increase in extracellular AK activity)) was 1.2; in assay [2] (planktonic K. pneumoniae, 384-well, cutoff for positive-scoring molecules 3-fold increase, read-out: AK-based Prestwick Library Screening Results: K. pneumoniae (increase in extracellular AK activity)), 0.9; in assay [3] (planktonic E. coli, 384-well, cutoff for positive-scoring molecules 3-fold increase, read-out: AK-based Prestwick Library Screening Results: E. coli (increase in extracellular AK activity)) it was 1.2; in assay [4] (planktonic E. faecium, 384-well, cutoff for positive-scoring molecules 3-fold increase, read-out: AK-based Prestwick Library Screening Results: E. faecium (increase in extracellular AK activity)), 1.1; in assay [5] (planktonic E. cloacae, 384-well, cutoff for positive-scoring molecules 3-fold increase, read-out: AK-based Prestwick Library Screening Results: E. cloacae (increase in extracellular AK activity)), 1.4; in assay [6] (planktonic A. baumannii, 384-well, cutoff for positive-scoring molecules 3-fold increase, read-out: AK-based Prestwick Library Screening Results: A. baumannii (increase in extracellular AK activity)) it was 1.5. For the same molecule, in assay [7] (planktonic S. aureus, 384-well, cutoff for positive-scoring molecules 3-fold increase, read-out: AK-based Prestwick Library Screening Results: S. aureus (increase in extracellular AK activity)), the fold induction at 50 µM amounted to 1.3.
On to `Cc1ncc(CO)c(CO)c1O` [Pyridoxine hydrochloride], for which the fold induction at 50 µM was found to be 1.2 in assay [1] (planktonic, […], read-out: AK-based Prestwick Library Screening Results, P. aeruginosa (fold increase in extracellular AK activity)); 1.1 in assay [2] (planktonic, […], read-out: AK-based Prestwick Library Screening Results, K. pneumoniae (fold increase in extracellular AK activity)); 1.4 in assay [3] (planktonic, […], read-out: AK-based Prestwick Library Screening Results, E. coli (fold increase in extracellular AK activity)); 1 in assay [4] (planktonic, […], read-out: AK-based Prestwick Library Screening Results, E. faecium (fold increase in extracellular AK activity)); 1.7 in assay [5] (planktonic, […], read-out: AK-based Prestwick Library Screening Results, E. cloacae (fold increase in extracellular AK activity)); 1.4 in assay [6] (planktonic, […], read-out: AK-based Prestwick Library Screening Results, A. baumannii (fold increase in extracellular AK activity)). The fold induction at 50 µM in assay [7] (planktonic, […], read-out: AK-based Prestwick Library Screening Results, S. aureus (fold increase in extracellular AK activity)) turned out to be 1.3.
